How the values were obtained:
[1] = molecular target: T1, c-Kit(V654A) (Homo sapiens, UniProt P10721, V654A); assay: c-Kit(V654A) assay (33P-ATP filter binding kinase assay); type: biochemical; conditions: recombinant human c-Kit aa 544-end V654A, ATP 200 μM
T1 construct: recombinant human c-Kit, amino acids 544-end containing the V654A mutation; GST (N)
Summary of the method: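 Radiometric filter-binding read-out: substrate 33P incorporation counted by scintillation after P30 filtermat washes in 75 mM phosphoric acid and methanol. Enzyme: N-GST recombinant human c-Kit aa 544-end carrying V654A.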

[2] = Determination of Efflux-Ratio (ER) in Caco-2 cells; conditions: human, Caco-2, pH 7.4
Protocol: Determination of Efflux-Ratio (ER) in Caco-2 Cells
The efflux ratio of the test compounds was determined in Caco-2 human epithelial colorectal adenocarcinoma cell line (TC7 clone) using calculation of apparent permeability (Papp). Cell monolayers were differentiated in vitro for 14 days before the experiment. Subsequently, the test compound (in HBSS pH 7.4 at 1 μM final concentration) was applied on the donor side while HBSS buffer (pH 7.4) was added to the receiver wells. […] The plate was then incubated in a 5% CO2 incubator (37° C., 100% humidity). At the end of the 2 hours incubation period, 50 μL sample was removed from both donor and receiver wells and diluted 1:1 with equal volumes of acetonitrile for LC-MS/MS analysis. The LC-MS/MS analysis used a one-point calibration method from a 1 μM standard solution diluted 1:1 with equal volume of acetonitrile (consistent to the test samples).
The data was used to calculate the apparent permeabilities of the compounds in both apical to basolateral (Papp,AB) and basolateral to apical (Papp,BA) directions at 1 μM concentration in duplicate. The Papp values were calculated from the concentrations in the donor and receiver compartments using the following formula:
Efflux ratio was calculated according to the following formula:

[3] = molecular target: T2, GIST430/654 cell line expressing mutated constitutively active cKIT receptor tyrosine kinase (Δ560-576 deletion and V654A point mutation) (Homo sapiens, UniProt P10721, DEL560-576/V654A); assay: Cellular cKIT autophosphorylation (phospho-Y307-cKIT, Luminex bead assay) in GIST430/654 cells; type: cell-based; conditions: compounds 45 min, read-out: GIST 430/654 IC50
T2 construct: endogenous in cells; host or cells: GIST430/654 cells
Summary of the method: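 GIST430 (Δ560-576) and imatinib-resistant GIST430/654 (plus V654A; grown with 100 nM imatinib) cells were plated in IMDM/15% FCS and treated next day with serially diluted compound for 45 min. Lysates were captured on anti-total-cKIT Luminex beads overnight at 4 °C and probed for phospho-Y307. IC50 was taken from percent of 0.3% DMSO control.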

T2 sequence (P10721 with tags, fused parts or gaps DEL560-576/V654A): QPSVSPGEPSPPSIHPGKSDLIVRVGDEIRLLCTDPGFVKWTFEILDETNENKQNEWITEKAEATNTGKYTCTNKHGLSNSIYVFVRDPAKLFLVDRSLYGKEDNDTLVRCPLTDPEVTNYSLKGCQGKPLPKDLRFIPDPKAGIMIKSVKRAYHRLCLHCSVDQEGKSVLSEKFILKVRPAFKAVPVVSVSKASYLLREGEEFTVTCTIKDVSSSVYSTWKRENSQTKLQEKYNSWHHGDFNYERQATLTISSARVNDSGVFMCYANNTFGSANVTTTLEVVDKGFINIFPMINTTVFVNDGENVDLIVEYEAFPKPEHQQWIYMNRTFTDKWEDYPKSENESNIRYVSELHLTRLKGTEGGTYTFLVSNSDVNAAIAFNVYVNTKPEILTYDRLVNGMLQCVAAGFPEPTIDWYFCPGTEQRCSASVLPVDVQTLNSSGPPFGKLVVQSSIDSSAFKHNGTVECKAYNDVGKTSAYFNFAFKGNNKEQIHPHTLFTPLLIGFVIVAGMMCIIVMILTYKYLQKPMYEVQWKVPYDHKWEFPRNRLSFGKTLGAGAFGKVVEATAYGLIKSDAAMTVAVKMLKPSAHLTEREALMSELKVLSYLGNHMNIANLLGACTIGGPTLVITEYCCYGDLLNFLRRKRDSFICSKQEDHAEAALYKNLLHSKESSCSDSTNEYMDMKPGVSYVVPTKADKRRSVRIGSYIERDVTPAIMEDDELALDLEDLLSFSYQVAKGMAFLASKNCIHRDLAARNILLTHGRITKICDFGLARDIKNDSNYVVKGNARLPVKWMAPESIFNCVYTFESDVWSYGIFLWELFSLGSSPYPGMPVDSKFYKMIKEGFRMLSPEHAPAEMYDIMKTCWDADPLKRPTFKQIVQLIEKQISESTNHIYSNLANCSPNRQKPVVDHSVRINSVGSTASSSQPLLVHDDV
T1 sequence (P10721 544-976 V654A): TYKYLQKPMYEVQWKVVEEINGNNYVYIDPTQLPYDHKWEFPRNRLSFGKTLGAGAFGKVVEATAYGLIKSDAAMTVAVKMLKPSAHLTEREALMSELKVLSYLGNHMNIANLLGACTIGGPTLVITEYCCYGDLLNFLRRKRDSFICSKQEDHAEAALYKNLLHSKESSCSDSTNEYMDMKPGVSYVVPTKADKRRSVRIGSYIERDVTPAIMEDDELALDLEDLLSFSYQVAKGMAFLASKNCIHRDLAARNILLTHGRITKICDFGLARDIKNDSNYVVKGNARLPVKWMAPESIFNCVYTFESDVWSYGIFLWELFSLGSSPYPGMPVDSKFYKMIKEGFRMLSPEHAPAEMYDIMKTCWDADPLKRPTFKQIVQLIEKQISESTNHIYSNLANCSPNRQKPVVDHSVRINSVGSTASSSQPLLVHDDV

Row | SMILES | IC50 [1] | efflux ratio at 2 h, 1 μM [2] | IC50 [3]
1 | Cn1cc(-c2ccc(CNc3cc(-c4cnc5cc(N6CCC7(COC7)C6)ccn45)ncn3)cc2)cn1 [A247, [4-(1-methyl-1H-pyrazol-4-yl)-benzyl]-{6-[7-(2-oxa-6-aza-spiro[3.4]oct-6-yl)-imidazo[1,2-a]pyridin-3-yl]-pyrimidin-4-yl}-amine] | 7.8 nM | < 15 | 62 nM
2 | CN1CCN(CCOc2ccn3c(-c4cc(NCc5ccc(-c6cnn(C)c6)cc5)ncn4)cnc3c2)C(=O)C1 [A141, 4-methyl-1-[2-({3-[6-({[4-(1-methyl-1H-pyrazol-4-yl)phenyl]methyl}amino)pyrimidin-4-yl]imidazo[1,2-a]pyridin-7-yl}oxy)ethyl]piperazin-2-one] | 15 nM | > 50 | 85 nM
3 | CN1CC2CCC(C1)N2CCOc1ccn2c(-c3cc(NCc4ccc(-c5cnn(C)c5)cc4)ncn3)cnc2c1 [A198, (6-{7-[2-(3-methyl-3,8-diaza-bicyclo[3.2.1]oct-8-yl)-ethoxy]-imidazo[1,2-a]pyridin-3-yl}-pyrimidin-4-yl)-[4-(1-methyl-1H-pyrazol-4-yl)-benzyl]-amine] | 10 nM | 15 to 50 | 120 nM
4 | CN1CCC(COc2ccn3c(-c4cc(NCc5ccc(-n6ccnn6)cc5)ncn4)cnc3c2)CC1 [A80, {6-[7-(1-methyl-piperidin-4-ylmethoxy)-imidazo[1,2-a]pyridin-3-yl]-pyrimidin-4-yl}-(4-[1,2,3]triazol-1-yl-benzyl)-amine] | 3.4 nM | > 50 | 38 nM
5 | Cn1ncc(-c2ccc(CNc3cc(-c4cnc5cc(OCCCN6CCOCC6)ccn45)ncn3)cc2)n1 [A133] | 2.6 nM | < 15 | 30 nM

Now from value to compound:

Row | IC50 [1] | efflux ratio at 2 h, 1 μM [2] | IC50 [3] | SMILES
6 | 4 nM | > 50 | 120 nM | Cn1cc(-c2ccc(CNc3cc(-c4cnc5cc(OCC6CCNCC6)ccn45)ncn3)cc2)cn1 [A166, [4-(1-methyl-1H-pyrazol-4-yl)-benzyl]-{6-[7-(piperidin-4-ylmethoxy)-imidazo[1,2-a]pyridin-3-yl]-pyrimidin-4-yl}-amine]
7 | 7 nM | 15 to 50 | 170 nM | Cn1cc(-c2ccc(CNc3cc(-c4cnc5cc(OCC(C)(C)N)ccn45)ncn3)cc2)cn1 [A104, {6-[7-(2-amino-2-methyl-propoxy)-imidazo[1,2-a]pyridin-3-yl]-pyrimidin-4-yl}-[4-(1-methyl-1H-pyrazol-4-yl)-benzyl]-amine]
8 | 21 nM | < 15 | 180 nM | Cn1cc(-c2ccc(CNc3cc(-c4cnc5cc(OCCN6CCOC(F)(F)C6)ccn45)ncn3)cc2)cn1 [A214, (6-{7-[2-(2,2-difluoro-morpholin-4-yl)-ethoxy]-imidazo[1,2-a]pyridin-3-yl}-pyrimidin-4-yl)-[4-(1-methyl-1H-pyrazol-4-yl)-benzyl]-amine]
9 | 6.7 nM | < 15 | 84 nM | Cn1cc(-c2ccc(CNc3cc(-c4cnc5cc(OCC(C)(C)O)ccn45)ncn3)cc2)cn1 [A64, 2-methyl-1-(3-{6-[4-(1-methyl-1H-pyrazol-4-yl)-benzylamino]-pyrimidin-4-yl}-imidazo[1,2-a]pyridin-7-yloxy)-propan-2-ol]
10 | 8.7 nM | > 50 | 130 nM | Cn1cc(-c2ccc(CNc3cc(-c4cnc5cc(OCCC6(N)COC6)ccn45)ncn3)cc2)cn1 [A233]
11 | 10 nM | < 15 | 110 nM | CN(CC#N)CCOc1ccn2c(-c3cc(NCc4ccc(-c5cnn(C)c5)cc4)ncn3)cnc2c1 [A205, {methyl-[2-(3-{6-[4-(1-methyl-1H-pyrazol-4-yl)-benzylamino]-pyrimidin-4-yl}-imidazo[1,2-a]pyridin-7-yloxy)-ethyl]-amino}-acetonitrile]

Reference: patent publication US12655142B2 (Merck Patent GmbH, priority 2019, dated 2026)
